Results as given in patent publication US7592336B2, “Hepatitis C virus inhibitors” (Bristol-Myers Squibb Company, priority 2005, dated 2009).

Experiments:
[1] = target: T1, HCV NS3/4A protease complex, BMS strain (UniProt P27958, species not given/STRAIN_BMS); assay: FRET peptide assay to monitor HCV NS3/4A proteolytic activity (BMS strain); format: biochemical, HCV genotype 1a; conditions: NS3/4A BMS strain; read-out: Activity Range (IC50)
T1 construct: said of H77 and J4L6S, not expressly of BMS; fused on or other part: A three-lysine solubilising tail at the NS4A C-terminus and purification on Ni-NTA are described for the H77 and J4L6S constructs
Description: HCV NS3 protease complexes, derived from the BMS strain, H77 strain or J4L6S strain, were generated, as described below. These purified recombinant proteins were generated for use in a homogeneous assay (see below) to provide an indication of how effective compounds of the present disclosure would be in inhibiting HCV NS3 proteolytic activity.
Serum from an HCV-infected patient was obtained from Dr. T. Wright, San Francisco Hospital. An engineered full-length cDNA (compliment deoxyribonucleic acid) template of the HCV genome (BMS strain) was constructed from DNA fragments obtained by reverse transcription-PCR (RT-PCR) of serum RNA (ribonucleic acid) and using primers selected on the basis of homology between other genotype 1a strains. From the determination of the entire genome sequence, a genotype 1a was assigned to the HCV isolate according to the classification of Simmonds et al. (See P Simmonds, K A Rose, S Graham, S W Chan, F McOmish, B C Dow, E A Follett, P L Yap and H Marsden, J. Clin. Microbiol., 31(6), 1493-1503 (1993)). […] The infectious clones, H77 (1a genotype) and J4L6S (1b genotype) were obtained from R. Purcell (NIH) and the sequences are published in Genbank (AAB67036, see Yanagi, M., Purcell, R. H., Emerson, S. U. and Bukh, J. Proc. Natl. Acad. Sci. U.S.A. 94(16), 8738-8743 (1997); AF054247, see Yanagi, M., St Claire, M., Shapiro, M., Emerson, S. U., Purcell, R. H. and Bukh, J, Virology 244 (1), 161-172. (1998)).
NS3/4A protease complex-containing fractions were pooled and loaded on a desalting column Superdex-S200 pre-equilibrated with buffer D (25 mM HEPES, pH 7.5, 20% glycerol, 300 mM NaCl, 0.2% Triton X-100, 10 mM βME). Sample was loaded at a flow rate of 1 mL/min. NS3/4A protease complex-containing fractions were pooled and concentrated to approximately 0.5 mg/ml. The purity of the NS3/4A protease complexes, derived from the BMS, H77 and J4L6S strains, were judged to be greater than 90% by SDS-PAGE and mass spectrometry analyses. The enzyme was stored at −80° C., thawed on ice and diluted prior to use in assay buffer.
The purpose of this in vitro assay was to measure the inhibition of HCV NS3 protease complexes, derived from the BMS strain, H77 strain or J4L6S strain, as described above, by compounds of the present disclosure. This assay provides an indication of how effective compounds of the present disclosure would be in inhibiting HCV NS3 proteolytic activity.
In order to monitor HCV NS3/4A protease activity, an NS3/4A peptide substrate was used. The substrate was RET S1 (Resonance Energy Transfer Depsipeptide Substrate; AnaSpec, Inc. cat #22991) (FRET peptide), described by Taliani et al. in Anal. Biochem. 240(2):60-67 (1996). The sequence of this peptide is loosely based on the NS4A/NS4B natural cleavage site for the HCV NS3 protease except there is an ester linkage rather than an amide bond at the cleavage site. The peptide also contains a fluorescence donor, EDANS, near one end of the peptide and an acceptor, DABCYL, near the other end. The fluorescence of the peptide is quenched by […] resonance energy transfer (RET) between the donor and the acceptor, but as the NS3 protease cleaves the peptide the products are released from RET quenching and the fluorescence of the donor becomes apparent.
The peptide substrate was incubated with one of the three recombinant NS3/4A protease complexes, in the absence or presence of a compound of the present disclosure. The inhibitory effects of a compound were determined by monitoring the formation of fluorescent reaction product in real time using a Cytofluor Series 4000.
Assay buffer: 50 mM HEPES, pH 7.5; 0.15M NaCl; 0.1% Triton; 15% Glycerol; 10 mM βME. Substrate: 2 μM final concentration (from a 2 mM stock solution in DMSO stored at −20° C.). HCV NS3/4A protease type 1a (1b), 2-3 nM final concentration (from a 5 μM stock solution in 25 mM HEPES, pH 7.5, 20% glycerol, 300 mM NaCl, 0.2% Triton-X100, 10 mM βME). […]

[2] = test system: HCV replicon in HUH-7 cells; assay: HCV replicon FRET assay; format: cell-based, HCV strain 1b; conditions: Hepatitis C virus, Huh-7; HCV replicon cell assay; read-out: Activity Range (EC50)
Description: An HCV replicon whole cell system was established as described by Lohmann V, Korner F, Koch J, Herian U, Theilmann L, Bartenschlager R., Science 285(5424):110-3 (1999). This system enabled us to evaluate the effects of our HCV Protease compounds on HCV RNA replication. Briefly, using the HCV strain 1b sequence described in the Lohmann paper (Assession number: AJ238799), an HCV cDNA was synthesized by Operon Technologies, Inc. (Alameda, Calif.), and the full-length replicon was then assembled in plasmid pGem9zf(+) (Promega, Madison, Wis.) using standard molecular biology techniques. The replicon consists of (i) the HCV 5′ UTR fused to the first 12 amino acids of the capsid protein, (ii) the neomycin phosphotransferase gene (neo), (iii) the IRES from encephalomyocarditis virus (EMCV), and (iv) HCV NS3 to NS5B genes and the HCV 3′ UTR. Plasmid DNAs were linearized with ScaI and RNA transcripts were synthesized in vitro using the T7 MegaScript transcription kit (Ambion, Austin, Tex.) according to manufacturer's directions. In vitro transcripts of the cDNA were transfected into the human hepatoma cell line, HUH-7. […] Resulting cell lines were characterized for positive and negative strand RNA production and protein production over time.
The HCV replicon FRET assay was developed to monitor the inhibitory effects of compounds described in the disclosure on HCV viral replication. HUH-7 cells, constitutively expressing the HCV replicon, were grown in Dulbecco's Modified Eagle Media (DMEM) (Gibco-BRL) containing 10% Fetal calf serum (FCS) (Sigma) and 1 mg/ml G418 (Gibco-BRL). Cells were seeded the night before (1.5×10^4 cells/well) in 96-well tissue-culture sterile plates. Compound and no compound controls were prepared in DMEM containing 4% FCS, 1:100 Penicillin/Streptomysin (Gibco-BRL), 1:100 L-glutamine and 5% DMSO in the dilution plate (0.5% DMSO final concentration in the assay). Compound/DMSO mixes were added to the cells and incubated for 4 days at 37° C. After 4 days, cells were first assessed for cytotoxicity using alamar Blue (Trek Diagnotstic Systems) for a CC50 reading. The toxicity of compound (CC50) was determined by adding 1/10th volume of alamar Blue to the media incubating the cells. After 4 h, the fluorescence signal from each well was read, with an excitation wavelength at 530 nm and an emission wavelength of 580 nm, using the Cytofluor Series 4000 (Perspective Biosystems). Plates were then rinsed thoroughly with Phosphate-Buffered Saline (PBS) (3 times 150 μl). The cells were lysed with 25 μl of a lysis assay reagent containing an HCV protease substrate (5× cell Luciferase cell culture lysis reagent (Promega #E153A) diluted to 1× with distilled water, NaCl added to 150 mM final, the FRET peptide substrate (as described for the enzyme assay above) diluted to 10 μM final from a 2 mM stock in 100% DMSO. […]. The plate was then placed into the Cytofluor 4000 instrument which had been set to 340 nm excitation/490 nm emission, automatic mode for 21 cycles and the plate read in a kinetic mode. EC50 determinations were carried out as described for the IC50 determinations.

T1 sequence (P27958 1027-1657, change not shown, one chain of several): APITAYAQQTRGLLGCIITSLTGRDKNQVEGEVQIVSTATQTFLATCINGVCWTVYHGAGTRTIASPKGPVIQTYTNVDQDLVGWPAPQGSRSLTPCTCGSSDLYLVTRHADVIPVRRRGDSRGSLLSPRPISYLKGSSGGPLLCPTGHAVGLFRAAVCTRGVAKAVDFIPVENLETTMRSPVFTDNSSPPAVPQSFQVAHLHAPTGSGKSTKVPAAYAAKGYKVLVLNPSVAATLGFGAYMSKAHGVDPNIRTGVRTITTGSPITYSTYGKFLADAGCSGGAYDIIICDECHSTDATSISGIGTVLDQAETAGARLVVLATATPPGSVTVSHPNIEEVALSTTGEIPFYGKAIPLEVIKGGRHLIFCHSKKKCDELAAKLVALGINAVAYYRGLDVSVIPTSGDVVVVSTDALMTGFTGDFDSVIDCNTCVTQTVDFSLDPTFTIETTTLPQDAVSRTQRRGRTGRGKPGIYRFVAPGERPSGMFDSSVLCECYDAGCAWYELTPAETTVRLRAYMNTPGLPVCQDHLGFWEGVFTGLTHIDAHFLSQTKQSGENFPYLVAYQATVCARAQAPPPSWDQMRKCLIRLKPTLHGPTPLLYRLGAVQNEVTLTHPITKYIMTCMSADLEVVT

Structure (SMILES)	IC50 [1]	EC50 [2]
C=C[C@@H]1C[C@]1(NC(=O)[C@@H]1C[C@@](O)(c2ccc(F)cc2)CN1C(=O)[C@@H](NC(=O)OC(C)(C)C)C(C)(C)C)C(=O)NS(=O)(=O)C1CC1 [Compound 6]	100 to 1000 nM	1 to 10 µM
C=C[C@@H]1C[C@]1(NC(=O)[C@@H]1C[C@@](O)(c2cccc(-c3ccc(OC)cc3)c2)CN1C(=O)[C@@H](NC(=O)OC(C)(C)C)C(C)(C)C)C(=O)NS(=O)(=O)C1CC1 [Compound 8]	100 to 1000 nM	1 to 10 µM
C=C[C@@H]1C[C@]1(NC(=O)[C@@H]1C[C@@](O)(c2cccc(C)c2)CN1C(=O)[C@@H](NC(=O)OC(C)(C)C)C(C)(C)C)C(=O)NS(=O)(=O)C1CC1 [Compound 13]	1 to 100 nM	1 to 10 µM
C=C[C@@H]1C[C@]1(NC(=O)[C@@H]1C[C@@](O)(c2ccc(F)c(C)c2)CN1C(=O)[C@@H](NC(=O)OC(C)(C)C)C(C)(C)C)C(=O)NS(=O)(=O)C1CC1 [Compound 22]	100 to 1000 nM	1 to 10 µM
